Key:
CD-1 mouse = experiment: Preliminary dose study, primary biomarkers of tumor promotion; type: in vivo; settings: 0.25 and 0.5 mg of Lupeol per animal, topical; data not shown
Protocol: Studies from the inventors' laboratory and by other have shown that TPA application to mouse skin results in cutaneous edema (Katiyar et at, 1996; Liang et at, 2002). In the present study, the inventors evaluated the protective effects of topical application of Lupeol in TPA-mediated cutaneous edema in CD-1 mouse. The inventors tested four doses 0.25, 0.5, 1 and 2 mg of Lupeol per animal in the inventors' preliminary studies. […] The CD-1 mice were topically treated with Lupeol (1 and 2 mg/mouse) and 30 min later were topically treated with TPA (3.2 nmole/mouse). […] At least four determinations were made at different dorsal skin sites per mouse in each group. The data represents the mean±SE of eight mice (*p<0.01 vs TPA).

epidermal ODC = experiment: TPA-induced epidermal ODC enzyme activity (14CO2 release); type: in vivo, mouse; settings: for inhibition of TPA-caused induction of epidermal ODC activity: p<0.005
Protocol: FIG. 3. Inhibitory effect of Lupeol on TPA-induced epidermal ODC activity: ODC enzyme activity was determined using 0.4 ml epidermal supernatant by measuring the release of ^14CO2 from the D, L-[^14C]ornithine. Data is represented as mean±SE of four individual values (* represents p<0.005). The epidermis from two animals was pooled for each determination.
The animals were shaved on the dorsal side of the skin, divided into four groups and treated topically on the shaved area with either 0.4 ml vehicle (acetone), or TPA (3.2 nmol/0.4 ml acetone/animal, v/v), or Lupeol (1 or 2 mg/0.2 ml acetone/animal, w/v) followed 30 min later with TPA (3.2 nmol/0.2 ml acetone/animal). Animals were sacrificed at different times point i.e. 6, 12, 24 and 48 h post TPA treatment. The epidermis was separated from the whole skin and homogenized in 0.1 M Tris-HCl buffer (pH 7.2) using a Polytron tissue homogenizer (Brinkmann Instruments, Westbury, N.Y., USA) at 100,000×g supernatant, and microsomal fractions were prepared as described earlier (Katiyar and Mukhtar, 1997). The sample of 6 h treatment group was used to assess the ODC activity as this time point has previously been shown for optimal induction of the enzyme (Katiyar er al., 1996).
ODC enzyme activity was determined using 0.4 ml epidermal supernatant by measuring the release of ^14CO2 from the D, L-[^14C] ornithine as reported earlier. (Gupta et al., 1999). The epidermis from the skin was homogenized at 4° C. in a glass-to-glass homogenizer in 10 volumes of ODC buffer [50 mM Tris-HCl buffer (pH 7.5) containing 0.1 mM EDTA, 0.1 mM dithiothreitol, 0.1 mM pyridoxal-5-phosphate, 1 mM 2-mercaptoethanol and 0.1% Tween-80]. The homogenate was centrifuged at 100,000×g at 4° C. and the supernatant was used for enzyme determination. […] The radioactivity was measured in a Beckman LS 6000 SC liquid scintillation counter. Enzyme activity was expressed as pmol CO2 released/h/mg protein.

[1] = system: normal human prostate epithelial cells (PrEC); experiment: Viability of normal human prostate epithelial cells, MTT assay; type: cell-based; settings: 48 hours
Protocol: FIG. 9 depicts effect of Lupeol on viability of normal human prostate epithelial cells (PrEC). Cells were treated with specified concentrations of Lupeol for 48 h, and cell viability was determined by MTT (3-[4,5-dimethylthiazol-2-yl]-2,5-diphenyl tetrazoliumbromide) assay. The values are represented as the percent viable cells where vehicle-treated cells were regarded as 100% viable. Data represents mean value of percent viable cells±S.E of three independent experiments.

human PSA = experiment: Serum PSA in athymic nude mice implanted with CWR22Rv1 cells; type: in vivo, mouse; settings: Lupeol 1 mg/animal i.p. three times a week, vs control mice
From the text: FIG. 19 depicts effect of Lupeol on human PSA levels in serum of athymic nude mice implanted with CWR22Rv1 cells. Data is represented as mean±SD. * indicates p<0.05.
CW22Rv1 cells once implanted in a xenograft mouse model releases Prostate specific antigen (PSA) in host system and grows rapidly than LNCaP cells. PSA is a well known diagnostic biomarker of prostate cancer.

[2] = system: PARP, Bax, Bcl-2 in AsPC-1 cells; experiment: PARP cleavage and Bax, Bcl-2 expression in AsPC-1 cells; type: cell-based
From the text: FIG. 22 depicts effect of Lupeol treatment on PARP cleavage and on protein expression of Bax, Bcl-2 in AsPC-1 cells.

[3] = system: Ras, PKCα, ODC, pAkt in AsPC-1 cells; experiment: Ras, PKCα, ODC, PI3K, pAkt expression in AsPC-1 cells; type: cell-based
From the text: FIG. 23 depicts effect of Lupeol treatment on the expression of Ras, PKCα, ODC, PI3K (P85), pAkt and total Akt, p38 and Erk1/2 proteins in AsPC-1 cells.

[4] = system: I-κBα protein and p65-subunit of NFκB in AsPC-1 cells; experiment: Phosphorylation of IκBα and NFκB p65 in AsPC-1 cells; type: cell-based
From the text: FIG. 24 depicts effect of Lupeol treatment on the phosphorylation of I-κBα protein and p65-subunit of NFκB transcriptional factor in AsPC-1 cells.

mouse ear = settings: Nikiema et al., 2001; cited from earlier work

C=C(C)[C@@H]1CC[C@]2(C)CC[C@]3(C)[C@H](CC[C@@H]4[C@@]5(C)CC[C@H](O)C(C)(C)[C@@H]5CC[C@]43C)[C@@H]12 [Lupeol, Lup-20(29)-en-3β-ol]
effect on primary biomarkers of tumor promotion (CD-1 mouse): did not exhibit any significant effect | inhibition of TPA-caused induction of epidermal ODC activity (epidermal ODC; Lupeol 1 mg/animal topical 30 min prior to TPA): 50% | inhibition of TPA-caused induction of epidermal ODC activity (epidermal ODC; Lupeol 2 mg/animal topical 30 min prior to TPA): 75% | basal epidermal ODC activity (epidermal ODC; Lupeol alone (2 mg/animal)): without any effect | cell death of normal prostate epithelial cells ([1]; 60 μM Lupeol): 30% | cell death of normal prostate epithelial cells ([1]; Lupeol up to 50 μM): did not exhibit any significant cell death | serum PSA levels (human PSA): lower serum PSA levels | expression level of anti-apoptotic protein Bcl-2 [2]: no change was observed | Bax protein expression ([2]; 48 hours): increased Bax protein expression | cleavage of PARP ([2]; 48 hours): induced cleavage of PARP | expression of Ras protein [3]: decrease | phosphorylation of Akt [3]: reduction in the phosphorylation of Akt | protein expression of ODC [3]: significant reduction | protein expression of PKCa [3]: significant reduction | phosphorylation of IkBα [4]: significant reduction | phosphorylation of NFkB [4]: reduction in the phosphorylation of NFkB | protection against croton oil induced edema in mouse ear (mouse ear): more efficacy than indomethacin

From US8618082B2, “Lupeol anti-tumor agent and uses thereof” (Wisconsin Alumni Research Foundation, priority 2004, dated 2013)
